Assay results as given in PMC4984525 (Cancer, 2011).
“Also recorded” adds a separate entry of the source.

What was measured:
[1] = test system: Peripheral blood mononuclear cells (PBMCs); assay: Pharmacodynamics: spindle morphology by confocal imaging; format: cell-based, human
[2] = test system: HT-29; conditions: HT-29 subcutaneous xenograft, mouse; cited from earlier work
[3] = test system: tumor cell; conditions: background statement; cited from earlier work
[4] = test system: multiple myeloma; conditions: cited from earlier work
[5] = Plasma pharmacokinetics of ARRY-520; format: in vivo, human; conditions: for coefficient of variation (CV) for CL: inter-patient variability; for MRT / Tmax / half-life: median (min-max)

Question: What does the source list for `CON(C)C(=O)N1N=C(c2cc(F)ccc2F)S[C@@]1(CCCN)c1ccccc1` [ARRY-520]?
Answer: Aberrant spindles (with misaligned DNA) in PBMCs ([1]; Cycle 1, Day 5, patients dosed at 1.2 mg/m^2/day (after 3 doses)): observed in some PBMCs; also recorded: Aberrant spindles are observed; also recorded: abnormal spindles were observed; Monopolar spindles in blood mononuclear cells ([1]; DAPI nucleic acid stain and anti-tubulin antibodies): Monopolar spindles were observed; anti-cancer efficacy [2]: demonstrated anti-cancer efficacy; concentrations inducing mitotic arrest and tumor cell death [3]: sub-nanomolar; activity in xenograft models of multiple myeloma [4]: has shown activity; coefficient of variation (CV) for CL ([5]; Schedule 1, Cycle 1): 50.7%; coefficient of variation (CV) for CL ([5]; Schedule 1, Cycle 2): 77.1%; time plasma concentrations maintained above 2 ng/mL ([5]; Schedule 1, following a single infusion, postinitiation of infusion, all cohorts): greater than 7 days; time geometric mean plasma concentrations maintained above 2 ng/mL ([5]; Schedule 2, all cohorts): more than 14 days; overall ratio of AUC0–24 on Day 5 compared to Day 1 ([5]; Schedule 2, dosing at 48-hour intervals): 2.23; AUC(0-t) ([5]; human, plasma, intravenous, 0.8 mg/m^2, AUC0–24, Schedule 2, Cycle 1 Day 1, 0.8 mg/m^2 (N=3), geometric mean (geometric %CV)): 116 ng·h/mL; AUC(0-t) ([5]; human, plasma, intravenous, 0.8 mg/m^2, AUC0–24, Schedule 2, Cycle 1 Day 5, 0.8 mg/m^2 (N=3), geometric mean (geometric %CV)): 179 ng·h/mL; clearance ([5]; human, plasma, intravenous, 0.8 mg/m^2, CL, Schedule 2, Cycle 1 Day 1, 0.8 mg/m^2 (N=3), geometric mean (geometric %CV)): 109 mL/min; clearance ([5]; human, plasma, intravenous, 0.8 mg/m^2, CL, Schedule 2, Cycle 1 Day 5, 0.8 mg/m^2 (N=3), geometric mean (geometric %CV)): 33.8 mL/min; Cmax ([5]; human, plasma, intravenous, 0.8 mg/m^2, Cmax, Schedule 2, Cycle 1 Day 1, 0.8 mg/m^2 (N=3), geometric mean (geometric %CV)): 19.5 ng/mL; Cmax ([5]; human, plasma, intravenous, 0.8 mg/m^2, Cmax, Schedule 2, Cycle 1 Day 5, 0.8 mg/m^2 (N=3), geometric mean (geometric %CV)): 25.3 ng/mL; MRT ([5]; human, plasma, intravenous, 0.8 mg/m^2, MRT, Schedule 2, Cycle 1 Day 5, 0.8 mg/m^2 (N=3)): 130 h; Tmax ([5]; human, plasma, intravenous, 0.8 mg/m^2, Tmax, Schedule 2, Cycle 1 Day 1, 0.8 mg/m^2 (N=3)): 1 h; Tmax ([5]; human, plasma, intravenous, 0.8 mg/m^2, Tmax, Schedule 2, Cycle 1 Day 5, 0.8 mg/m^2 (N=3)): 1.08 h; Vd ([5]; human, plasma, intravenous, 0.8 mg/m^2, Vss, Schedule 2, Cycle 1 Day 1, 0.8 mg/m^2 (N=3), mean (%CV)): 295 L; Vd ([5]; human, plasma, intravenous, 0.8 mg/m^2, Vss, Schedule 2, Cycle 1 Day 5, 0.8 mg/m^2 (N=3), mean (%CV)): 193 L; half-life ([5]; human, plasma, intravenous, 0.8 mg/m^2, t1/2, Schedule 2, Cycle 1 Day 1, 0.8 mg/m^2 (N=3)): 29.8 h; half-life ([5]; human, plasma, intravenous, 0.8 mg/m^2, t1/2, Schedule 2, Cycle 1 Day 5, 0.8 mg/m^2 (N=3)): 92.5 h; AUC(0-t) ([5]; human, plasma, intravenous, 1.2 mg/m^2, AUC0–24, Schedule 2, Cycle 1 Day 1, 1.2 mg/m^2 (N=6), geometric mean (geometric %CV)): 133 ng·h/mL; AUC(0-t) ([5]; human, plasma, intravenous, 1.2 mg/m^2, AUC0–24, Schedule 2, Cycle 1 Day 5, 1.2 mg/m^2 (N=6), geometric mean (geometric %CV)): 320 ng·h/mL; clearance ([5]; human, plasma, intravenous, 1.2 mg/m^2, CL, Schedule 2, Cycle 1 Day 1, 1.2 mg/m^2 (N=6), geometric mean (geometric %CV)): 130 mL/min; clearance ([5]; human, plasma, intravenous, 1.2 mg/m^2, CL, Schedule 2, Cycle 1 Day 5, 1.2 mg/m^2 (N=6), geometric mean (geometric %CV)): 15.8 mL/min; Cmax ([5]; human, plasma, intravenous, 1.2 mg/m^2, Cmax, Schedule 2, Cycle 1 Day 1, 1.2 mg/m^2 (N=6), geometric mean (geometric %CV)): 18.8 ng/mL; Cmax ([5]; human, plasma, intravenous, 1.2 mg/m^2, Cmax, Schedule 2, Cycle 1 Day 5, 1.2 mg/m^2 (N=6), geometric mean (geometric %CV)): 24.3 ng/mL; MRT ([5]; human, plasma, intravenous, 1.2 mg/m^2, MRT, Schedule 2, Cycle 1 Day 5, 1.2 mg/m^2 (N=6)): 134 h; Tmax ([5]; human, plasma, intravenous, 1.2 mg/m^2, Tmax, Schedule 2, Cycle 1 Day 1, 1.2 mg/m^2 (N=6)): 1.09 h; Tmax ([5]; human, plasma, intravenous, 1.2 mg/m^2, Tmax, Schedule 2, Cycle 1 Day 5, 1.2 mg/m^2 (N=6)): 1 h; Vd ([5]; human, plasma, intravenous, 1.2 mg/m^2, Vss, Schedule 2, Cycle 1 Day 1, 1.2 mg/m^2 (N=6), mean (%CV)): 363 L; Vd ([5]; human, plasma, intravenous, 1.2 mg/m^2, Vss, Schedule 2, Cycle 1 Day 5, 1.2 mg/m^2 (N=6), mean (%CV)): 239 L; half-life ([5]; human, plasma, intravenous, 1.2 mg/m^2, t1/2, Schedule 2, Cycle 1 Day 1, 1.2 mg/m^2 (N=6)): 25.6 h; half-life ([5]; human, plasma, intravenous, 1.2 mg/m^2, t1/2, Schedule 2, Cycle 1 Day 5, 1.2 mg/m^2 (N=6)): 94.9 h; AUC(0-t) ([5]; human, plasma, intravenous, 1.5 mg/m^2, AUC0–24, Schedule 2, Cycle 1 Day 1, 1.5 mg/m^2 (N=6), geometric mean (geometric %CV)): 264 ng·h/mL; AUC(0-t) ([5]; human, plasma, intravenous, 1.5 mg/m^2, AUC0–24, Schedule 2, Cycle 1 Day 5, 1.5 mg/m^2 (N=6), geometric mean (geometric %CV)): 667 ng·h/mL; clearance ([5]; human, plasma, intravenous, 1.5 mg/m^2, CL, Schedule 2, Cycle 1 Day 1, 1.5 mg/m^2 (N=6), geometric mean (geometric %CV)): 98.3 mL/min; clearance ([5]; human, plasma, intravenous, 1.5 mg/m^2, CL, Schedule 2, Cycle 1 Day 5, 1.5 mg/m^2 (N=6), geometric mean (geometric %CV)): 18.5 mL/min; Cmax ([5]; human, plasma, intravenous, 1.5 mg/m^2, Cmax, Schedule 2, Cycle 1 Day 1, 1.5 mg/m^2 (N=6), geometric mean (geometric %CV)): 57.9 ng/mL; Cmax ([5]; human, plasma, intravenous, 1.5 mg/m^2, Cmax, Schedule 2, Cycle 1 Day 5, 1.5 mg/m^2 (N=6), geometric mean (geometric %CV)): 134 ng/mL; MRT ([5]; human, plasma, intravenous, 1.5 mg/m^2, MRT, Schedule 2, Cycle 1 Day 5, 1.5 mg/m^2 (N=6)): 119 h; Tmax ([5]; human, plasma, intravenous, 1.5 mg/m^2, Tmax, Schedule 2, Cycle 1 Day 1, 1.5 mg/m^2 (N=6)): 1 h; Tmax ([5]; human, plasma, intravenous, 1.5 mg/m^2, Tmax, Schedule 2, Cycle 1 Day 5, 1.5 mg/m^2 (N=6)): 1.02 h; Vd ([5]; human, plasma, intravenous, 1.5 mg/m^2, Vss, Schedule 2, Cycle 1 Day 1, 1.5 mg/m^2 (N=6), mean (%CV)): 251 L; Vd ([5]; human, plasma, intravenous, 1.5 mg/m^2, Vss, Schedule 2, Cycle 1 Day 5, 1.5 mg/m^2 (N=6), mean (%CV)): 169 L; half-life ([5]; human, plasma, intravenous, 1.5 mg/m^2, t1/2, Schedule 2, Cycle 1 Day 1, 1.5 mg/m^2 (N=6)): 26.1 h; half-life ([5]; human, plasma, intravenous, 1.5 mg/m^2, t1/2, Schedule 2, Cycle 1 Day 5, 1.5 mg/m^2 (N=6)): 82.2 h; AUC(0-t) ([5]; human, plasma, intravenous, 1.8 mg/m^2, AUC0–24, Schedule 2, Cycle 1 Day 1, 1.8 mg/m^2 (N=2), geometric mean): 208 ng·h/mL; AUC(0-t) ([5]; human, plasma, intravenous, 1.8 mg/m^2, AUC0–24, Schedule 2, Cycle 1 Day 5, 1.8 mg/m^2 (N=2), geometric mean): 608 ng·h/mL; clearance ([5]; human, plasma, intravenous, 1.8 mg/m^2, CL, Schedule 2, Cycle 1 Day 1, 1.8 mg/m^2 (N=2), geometric mean): 130 mL/min; clearance ([5]; human, plasma, intravenous, 1.8 mg/m^2, CL, Schedule 2, Cycle 1 Day 5, 1.8 mg/m^2 (N=2), geometric mean): 18.3 mL/min; Cmax ([5]; human, plasma, intravenous, 1.8 mg/m^2, Cmax, Schedule 2, Cycle 1 Day 1, 1.8 mg/m^2 (N=2), geometric mean): 24.4 ng/mL; Cmax ([5]; human, plasma, intravenous, 1.8 mg/m^2, Cmax, Schedule 2, Cycle 1 Day 5, 1.8 mg/m^2 (N=2), geometric mean): 53.6 ng/mL; MRT ([5]; human, plasma, intravenous, 1.8 mg/m^2, MRT, Schedule 2, Cycle 1 Day 5, 1.8 mg/m^2 (N=2)): 114 h; Tmax ([5]; human, plasma, intravenous, 1.8 mg/m^2, Tmax, Schedule 2, Cycle 1 Day 1, 1.8 mg/m^2 (N=2)): 1 h; Tmax ([5]; human, plasma, intravenous, 1.8 mg/m^2, Tmax, Schedule 2, Cycle 1 Day 5, 1.8 mg/m^2 (N=2)): 1 h; Vd ([5]; human, plasma, intravenous, 1.8 mg/m^2, Vss, Schedule 2, Cycle 1 Day 1, 1.8 mg/m^2 (N=2), mean): 306 L; Vd ([5]; human, plasma, intravenous, 1.8 mg/m^2, Vss, Schedule 2, Cycle 1 Day 5, 1.8 mg/m^2 (N=2), mean): 127 L; half-life ([5]; human, plasma, intravenous, 1.8 mg/m^2, t1/2, Schedule 2, Cycle 1 Day 1, 1.8 mg/m^2 (N=2)): 27.1 h; half-life ([5]; human, plasma, intravenous, 1.8 mg/m^2, t1/2, Schedule 2, Cycle 1 Day 5, 1.8 mg/m^2 (N=2)): 80 h; AUC(0-inf) ([5]; human, plasma, intravenous, 2.5 mg/m^2): 1650 ng·h/mL; clearance ([5]; human, plasma, intravenous, 2.5 mg/m^2, CL, Schedule 1, Cycle 1 Day 1, 2.5 mg/m^2 (N=3), geometric mean (geometric %CV)): 44.8 mL/min; Cmax ([5]; human, plasma, intravenous, 2.5 mg/m^2, Cmax, Schedule 1, Cycle 1 Day 1, 2.5 mg/m^2 (N=3), geometric mean (geometric %CV)): 132 ng/mL; MRT ([5]; human, plasma, intravenous, 2.5 mg/m^2, MRT, Schedule 1, Cycle 1 Day 1, 2.5 mg/m^2 (N=3)): 92.7 h; Tmax ([5]; human, plasma, intravenous, 2.5 mg/m^2, Tmax, Schedule 1, Cycle 1 Day 1, 2.5 mg/m^2 (N=3)): 2 h; Vd ([5]; human, plasma, intravenous, 2.5 mg/m^2, Vss, Schedule 1, Cycle 1 Day 1, 2.5 mg/m^2 (N=3), mean (%CV)): 405 L; half-life ([5]; human, plasma, intravenous, 2.5 mg/m^2, t1/2, Schedule 1, Cycle 1 Day 1, 2.5 mg/m^2 (N=3)): 97.2 h; AUC(0-t) ([5]; human, plasma, intravenous, 3.6 mg/m^2, AUC0–24, Schedule 2, Cycle 1 Day 1, 3.6 mg/m^2 (N=1), geometric mean): 345 ng·h/mL; AUC(0-t) ([5]; human, plasma, intravenous, 3.6 mg/m^2, AUC0–24, Schedule 2, Cycle 1 Day 5, 3.6 mg/m^2 (N=1), geometric mean): 733 ng·h/mL; clearance ([5]; human, plasma, intravenous, 3.6 mg/m^2, CL, Schedule 2, Cycle 1 Day 1, 3.6 mg/m^2 (N=1), geometric mean): 187 mL/min; clearance ([5]; human, plasma, intravenous, 3.6 mg/m^2, CL, Schedule 2, Cycle 1 Day 5, 3.6 mg/m^2 (N=1), geometric mean): 22.2 mL/min; Cmax ([5]; human, plasma, intravenous, 3.6 mg/m^2, Cmax, Schedule 2, Cycle 1 Day 1, 3.6 mg/m^2 (N=1), geometric mean): 73.9 ng/mL
